Some test systems named below: K562; OVCAR-8; TK-10; KM12; SF-539; CAKI-1; SNB-19; NCI-H226; SF-268; PC-3; HCT-116; A549; HCC 2998; SF-295; RPMI-8226; M14; SK-MEL-28; COLO 205; MOLT-4; SK-OV-3.
Common to all, as to assay: inhibition of tumour cell growth, NCI panel, 48 h

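Protocol summary: plate cells (96-well), add compound at 5 concentrations, incubate 48 h, interpolate endpoints linearly. GI50 is the concentration that inhibits growth by half.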 Activity calls are given as the source filed them. Rule as the data show it: active = GI50 up to about 1.1 µM and inactive = higher.

Experimental findings from ChEMBL document CHEMBL1201862, “PubChem BioAssay data set” (2004) are described below.

For the compound `CS/C(C#N)=C(\C#N)SC`, the GI50 was 4.11 µM (inactive) with K562; 2.74 µM (inactive) in the assay on OVCAR-8; 6.55 µM (inactive) with TK-10; 13.9 µM (inactive) in the assay on KM12; 9.64 µM (inactive) in the assay on SF-539; 6.04 µM (inactive) in the assay on CAKI-1. Also, the GI50 was 25.7 µM (inactive) in the assay with SNB-19; 2.55 µM (inactive) with NCI-H226; 11.9 µM (inactive) with SF-268; 15.2 µM (inactive) with PC-3; 20.9 µM (inactive) in the assay on HCT-116; 30.4 µM (inactive) with A549. The GI50 with HCC 2998 was 2.99 µM (inactive); with SF-295, 18.5 µM (inactive); with RPMI-8226, 1.88 µM (inactive); with M14 it was 2.48 µM (inactive); in the assay on SK-MEL-28, 10.7 µM (inactive); with COLO 205, 3.06 µM (inactive). In addition, the GI50 in the assay with MOLT-4 was 0.233 µM (active).
On to `O=c1[nH]nc(-c2cccc(Br)c2)[nH]1`, for which the GI50 in the assay on K562, with OVCAR-8, with TK-10, in the assay with KM12, with SF-539 and with CAKI-1 was > 100 µM (inactive) throughout. The GI50 with SNB-19, in the assay on NCI-H226, in the assay with SF-268, in the assay on PC-3, in the assay on HCT-116 and in the assay on A549 was > 100 µM (inactive) each time. The GI50 in the assay with HCC 2998, with SF-295, with RPMI-8226, with M14, in the assay with SK-MEL-28 and in the assay on COLO 205 was > 100 µM (inactive) throughout. In addition, the GI50 in the assay on MOLT-4 was > 100 µM (inactive).
Consider `O=C(Nc1ccc(Cl)cc1)Oc1ccc(C(=S)Nc2ccc(Br)cc2)cc1`, for which the GI50 is 2.36 µM (inactive) with K562; 6.01 µM (inactive) in the assay with OVCAR-8; 2.55 µM (inactive) with KM12; 15.5 µM (inactive) in the assay with SF-539; 7.78 µM (inactive) with CAKI-1; 34.4 µM (inactive) in the assay with SNB-19. The GI50 is 30.5 µM (inactive) in the assay on SF-268; 21.1 µM (inactive) in the assay on PC-3; 10.3 µM (inactive) in the assay with HCT-116; 10 µM (inactive) in the assay with A549; 15.4 µM (inactive) in the assay with HCC 2998; 0.438 µM (active) in the assay with SF-295. For the same compound, the GI50 is 23.5 µM (inactive) in the assay with RPMI-8226; 3.43 µM (inactive) in the assay on M14; 10.4 µM (inactive) in the assay on SK-MEL-28; 9.75 µM (inactive) in the assay with COLO 205; 4.44 µM (inactive) in the assay on MOLT-4; 26.5 µM (inactive) with SK-OV-3.
With `O=[N+]([O-])c1ccc(/C(=N/c2ccccc2)SS/C(=N\c2ccccc2)c2ccc([N+](=O)[O-])o2)o1`, the GI50 in the assay with K562 is 1.34 µM (inactive); in the assay on OVCAR-8 it was 1.52 µM (inactive); in the assay with TK-10, 3.13 µM (inactive); in the assay with KM12, 1.68 µM (inactive); in the assay with SF-539 it was 0.83 µM (active); in the assay with CAKI-1 it was 1.97 µM (inactive). The GI50 with SNB-19 is 1.84 µM (inactive); in the assay on NCI-H226, 18.7 µM (inactive); in the assay on SF-268, 1.8 µM (inactive); with PC-3, 1.7 µM (inactive); in the assay with HCT-116, 1.5 µM (inactive); in the assay on A549, 1.91 µM (inactive). For the same compound, the GI50 in the assay on HCC 2998 is 1.59 µM (inactive); with SF-295, 2.76 µM (inactive); with M14, 1.98 µM (inactive); with SK-MEL-28, 2.4 µM (inactive); with COLO 205, 1.51 µM (inactive); in the assay with MOLT-4 it was 2.51 µM (inactive). Besides, the GI50 in the assay with SK-OV-3 was 3.86 µM (inactive).
Turning to `CCOC(=O)C1C(c2ccc(O)c(OC)c2)c2c(n[nH]c2O)CC1(C)O` (stereo not drawn), the GI50 with OVCAR-8, with TK-10, in the assay with KM12, in the assay on SF-539, in the assay on CAKI-1 and with SNB-19 was > 100 µM (inactive) throughout. The GI50 in the assay with SF-268, in the assay on PC-3, in the assay with HCT-116, in the assay with A549, in the assay on HCC 2998 and with SF-295 was > 100 µM (inactive) throughout. In addition, the GI50 with RPMI-8226, in the assay on M14, in the assay with SK-MEL-28, in the assay with COLO 205 and in the assay on MOLT-4 was > 100 µM (inactive) each time.
On to `COc1cc(/C=C2/C[C@H]3[C@@H]4CC=C5C[C@@H](OC(C)=O)CC[C@]5(C)[C@H]4CC[C@]3(C)NC2=O)cc(OC)c1OC`, for which the GI50 was 45.3 µM (inactive) with K562; 27.8 µM (inactive) with OVCAR-8; 26.5 µM (inactive) in the assay with TK-10; 47.4 µM (inactive) in the assay on KM12; 13.1 µM (inactive) in the assay with SF-539; 29.5 µM (inactive) with CAKI-1. The GI50 with SNB-19 is 15.9 µM (inactive); in the assay with SF-268, 24 µM (inactive); with PC-3 it was 19 µM (inactive); with HCT-116, 26.4 µM (inactive); with A549, 18 µM (inactive); in the assay on HCC 2998, 43.4 µM (inactive). The GI50 in the assay with SF-295 is 26.8 µM (inactive); in the assay on M14, 36.5 µM (inactive); in the assay on SK-MEL-28, 26.2 µM (inactive); with COLO 205, > 100 µM (inactive); in the assay on MOLT-4, 16.9 µM (inactive); in the assay with SK-OV-3, 25.3 µM (inactive).
In the case of `CC(=O)/C=C/CCC(=O)/C=C/C(=O)OC(CCC(=O)/C=C/C(=O)O)CC(C)=O` (stereo not drawn), the GI50 in the assay with K562, with OVCAR-8, in the assay on TK-10, with KM12, in the assay with SF-539 and in the assay on SNB-19 was > 100 µM (inactive) throughout. In addition, the GI50 in the assay with NCI-H226 was 42.6 µM (inactive); with SF-268 it was > 100 µM (inactive); in the assay on PC-3, > 100 µM (inactive); with HCT-116, > 100 µM (inactive); in the assay on A549 it was > 100 µM (inactive); with HCC 2998 it was > 100 µM (inactive). The GI50 in the assay on SF-295 was > 100 µM (inactive); in the assay with RPMI-8226, 54.7 µM (inactive); in the assay on M14 it was > 100 µM (inactive); with SK-MEL-28, > 100 µM (inactive); in the assay on COLO 205 it was > 100 µM (inactive); in the assay with MOLT-4 it was > 100 µM (inactive).
Take `CO[C@H]1/C=C/O[C@@]2(C)Oc3c(C)c(O)c4c(O)c(c(/C=N/N5CCN(C)CC5)c(O)c4c3C2=O)NC(=O)/C(C)=C\C=C\[C@H](C)[C@H](O)[C@@H](C)[C@@H](O)[C@@H](C)[C@H](OC(C)=O)[C@@H]1C` [RIFAMPIN]: the GI50 in the assay with K562 was > 100 µM (inactive); in the assay with OVCAR-8 it was > 100 µM (inactive); with TK-10 it was > 100 µM (inactive); in the assay with KM12, > 100 µM (inactive); with CAKI-1 it was > 100 µM (inactive); in the assay with PC-3 it was 81.5 µM (inactive). Further, the GI50 with HCT-116 was 97.7 µM (inactive); with A549 it was > 100 µM (inactive); in the assay on HCC 2998 it was 72.6 µM (inactive); in the assay with RPMI-8226, 52.1 µM (inactive); in the assay on M14, 62.1 µM (inactive); in the assay with SK-MEL-28, > 100 µM (inactive). In addition, the figures for the GI50 in the assay with COLO 205, in the assay on MOLT-4 and with SK-OV-3 were 82.6 µM (inactive), 68.7 µM (inactive) and > 100 µM (inactive), respectively.
